Structures are written as SMILES. Bridge positions count the residues as written; N and C are the ends. Square brackets hold non-standard residues; d marks the D form. Peptide text beside a SMILES is read from it. * marks the point of attachment. ξ: configuration not given here. Phe(4-COOH) = N[C@@H](Cc1ccc(C(=O)O)cc1)C(=O)O; Bip = N[C@@H](Cc1ccc(-c2ccccc2)cc1)C(=O)O; Phe(3-Cl) = N[C@@H](Cc1cccc(Cl)c1)C(=O)O; Phe(4-CN) = N#Cc1ccc(C[C@H](N)C(=O)O)cc1; Phe(3-Me) = Cc1cccc(C[C@H](N)C(=O)O)c1; Phe(2-F) = N[C@@H](Cc1ccccc1F)C(=O)O; Val(3-OH) = CC(C)(O)[C@H](N)C(=O)O; h4Pal = N[C@@H](CCc1ccncc1)C(=O)O; aIle = CC[C@@H](C)[C@H](N)C(=O)O; hPhe = N[C@@H](CCc1ccccc1)C(=O)O; 4Pal = N[C@@H](Cc1ccncc1)C(=O)O; Cha = N[C@@H](CC1CCCCC1)C(=O)O; Cit = NC(=O)NCCC[C@H](N)C(=O)O; Ile(3ξ) = CCC(C)[C@H](N)C(=O)O; dCha = N[C@H](CC1CCCCC1)C(=O)O; Thr(3ξ) = CC(O)[C@H](N)C(=O)O; Ala(CN) = N#CC[C@H](N)C(=O)O; NMeNle = CCCC[C@H](NC)C(=O)O; Carboxymethyl = O=C(O)C*; NMeA = CN[C@@H](C)C(=O)O; Nle = CCCC[C@H](N)C(=O)O; Orn = NCCC[C@H](N)C(=O)O; Dab = NCC[C@H](N)C(=O)O; Dap = NC[C@H](N)C(=O)O; ξV = CC(C)C(N)C(=O)O

The target in the test is T1, PE-labeled human PD-L1-Ig binding to Jurkat cell line over-expressing human PD-1 (Jurkat-PD-1) (Homo sapiens, UniProt Q15116).
T1 construct: expressed in transfected cells; host or cells: Jurkat
T1 sequence (Q15116 25-288): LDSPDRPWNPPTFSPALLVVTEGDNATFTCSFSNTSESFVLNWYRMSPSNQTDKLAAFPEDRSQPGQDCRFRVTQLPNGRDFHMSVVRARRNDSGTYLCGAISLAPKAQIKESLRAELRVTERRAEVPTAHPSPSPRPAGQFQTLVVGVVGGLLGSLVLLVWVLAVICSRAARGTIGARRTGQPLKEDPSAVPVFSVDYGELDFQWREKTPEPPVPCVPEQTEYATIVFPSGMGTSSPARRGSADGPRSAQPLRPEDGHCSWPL
Description: Jurkat-PD-1 Cell Binding High-Content Screening Assay (CBA): Method 1. The settings on record: Jurkat-hPD-1 cells, PE-labeled PD-L1-Ig 20 nM final; read-out: Jurkat HPDL1 PD1 IC50 (uM) (Method 1).
For `Cc1cccc(C[C@@H]2NC(=O)[C@H](CC(=O)O)NC(=O)[C@H](CCc3ccncc3)NC(=O)[C@H](CN)NC(=O)CSC[C@@H](C(=O)N[C@@H](C)C(N)=O)NC(=O)[C@H]([C@@H](C)O)NC(=O)[C@H](C(C)C)NC(=O)[C@H](CC(C)C)NC(=O)[C@H](CCN)NC(=O)[C@@H](CC(C)C)NC(=O)[C@H](C)N(C)C(=O)[C@H](CCCNC(N)=O)NC(=O)[C@H](Cc3ccc(-c4ccccc4)cc3)NC(=O)[C@H](C(C)C)NC2=O)c1` [Compound 1547] ({CH2CO}-[Dap][h4Pal]D[Phe(3-Me)]V[Bip][Cit][NMeA][dL][Dab]LVTCA-NH2; thioether N-14), the 50% inhibitory concentration (IC50) turned out to be 0.01 µM. For the compound `CC(C)C[C@@H]1NC(=O)[C@H](CCN)NC(=O)[C@@H](CC(C)C)NC(=O)[C@H](C)N(C)C(=O)[C@H](Cc2cnc[nH]2)NC(=O)[C@H](Cc2ccc(-c3ccccc3)cc2)NC(=O)[C@H](C(C)C)NC(=O)[C@H](Cc2c[nH]c3ccccc23)NC(=O)[C@H](CC(=O)O)NC(=O)[C@H](Cc2ccccc2F)NC(=O)[C@H](CN)NC(=O)CSC[C@@H](C(=O)N[C@@H](C)C(N)=O)NC(=O)[C@H]([C@@H](C)O)NC(=O)[C@H](C(C)C)NC1=O` [Compound 1425] ({CH2CO}-[Dap][Phe(2-F)]DWV[Bip]H[NMeA][dL][Dab]LVTCA-NH2; thioether N-14), the IC50 stood at 0.14 µM. The same measure for `CC[C@H](C)[C@@H]1NC(=O)[C@H](Cc2ccc(-c3ccccc3)cc2)NC(=O)[C@H](C(C)C)NC(=O)[C@H](Cc2cccc(C)c2)NC(=O)[C@H](CC(=O)O)NC(=O)[C@H](Cc2ccc(O)cc2)NC(=O)[C@H](CC(N)=O)NC(=O)CSC[C@@H](C(=O)N[C@@H](CCN)C(N)=O)NC(=O)[C@H]([C@@H](C)O)NC(=O)[C@H](C(C)(C)O)NC(=O)[C@H](CC2CCCCC2)NC(=O)[C@H](CCN)NC(=O)[C@@H](CC(C)C)NC(=O)[C@H](C)N(C)C1=O` [Compound 1689] ({CH2CO}-NYD[Phe(3-Me)]V[Bip]I[NMeA][dL][Dab][Cha][Val(3-OH)]TC[Dab]-NH2; thioether N-14): 0.02 µM; for `CC[C@H](C)[C@@H]1NC(=O)[C@H](Cc2ccc(-c3ccccc3)cc2)NC(=O)[C@H](C(C)C)NC(=O)[C@H](Cc2c[nH]c3ccccc23)NC(=O)[C@H](CC(=O)O)NC(=O)[C@H](Cc2ccc(C(=O)O)cc2)NC(=O)[C@H](CN)NC(=O)CSC[C@@H](C(=O)N[C@@H](C)C(N)=O)NC(=O)[C@H]([C@@H](C)O)NC(=O)[C@H](C(C)C)NC(=O)[C@H](CC(C)C)NC(=O)[C@H](CCN)NC(=O)[C@@H](CC(C)C)NC(=O)[C@H](C)N(C)C1=O` [Compound 1412] ({CH2CO}-[Dap][Phe(4-COOH)]DWV[Bip]I[NMeA][dL][Dab]LVTCA-NH2; thioether N-14): 0.05 µM; for `CCNC(=O)[C@H](CCN)NC(=O)[C@@H]1CSCC(=O)N[C@@H](CCc2ccccc2)C(=O)N[C@@H](Cc2ccc(OCC(=O)O)cc2)C(=O)N[C@@H](CC(=O)O)C(=O)N[C@@H](Cc2cccc(C)c2)C(=O)N[C@@H](Cc2ccc(OCC(=O)O)cc2)C(=O)N[C@@H](Cc2ccc(-c3ccccc3)cc2)C(=O)N[C@@H](Cc2ccc(OCC(=O)O)cc2)C(=O)N(C)[C@@H](C)C(=O)N[C@H](CC(C)C)C(=O)N[C@@H](CCN)C(=O)N[C@@H](CC2CCCCC2)C(=O)N[C@@H](C(C)C)C(=O)N[C@@H]([C@@H](C)O)C(=O)N1` [Compound 1855] ({CH2CO}-[hPhe]Y(Carboxymethyl)D[Phe(3-Me)]Y(Carboxymethyl)[Bip]Y(Carboxymethyl)[NMeA][dL][Dab][Cha]VTC[Dab]-NHEt; thioether N-14): 0.01 µM. The same measure for `CC(C)C[C@@H]1NC(=O)[C@H](CCCNC(=N)N)NC(=O)[C@@H](CC2CCCCC2)NC(=O)[C@H](C)N(C)C(=O)[C@H](CCCNC(=N)N)NC(=O)[C@H](Cc2ccc(-c3ccccc3)cc2)NC(=O)[C@H](C(C)C)NC(=O)[C@H](Cc2c[nH]c3ccccc23)NC(=O)[C@H](CC(=O)O)NC(=O)[C@H](Cc2ccc(O)cc2)NC(=O)[C@H](Cc2ccccc2)NC(=O)CSC[C@@H](C(=O)N[C@@H](C)C(N)=O)NC(=O)[C@H]([C@@H](C)O)NC(=O)[C@H](C(C)C)NC1=O` [Compound 1076] ({CH2CO}-FYDWV[Bip]R[NMeA][dCha]RLVTCA-NH2; thioether N-14): 0.05 µM. `CCCC[C@H]1C(=O)N[C@H](CC(C)C)C(=O)N[C@@H](CCN)C(=O)N[C@@H](CC(C)C)C(=O)N[C@@H](C(C)C)C(=O)N[C@@H]([C@@H](C)O)C(=O)N[C@H](C(=O)N[C@@H](C)C(N)=O)CSCC(=O)N[C@@H](CC(N)=O)C(=O)N[C@@H](Cc2ccc(O)cc2)C(=O)N[C@@H](CC(=O)O)C(=O)N[C@@H](Cc2c[nH]c3ccccc23)C(=O)N[C@@H](C(C)C)C(=O)N[C@@H](Cc2ccc(-c3ccccc3)cc2)C(=O)N[C@@H](C(C)C)C(=O)N1C` [Compound 1365] ({CH2CO}-NYDWV[Bip]V[NMeNle][dL][Dab]LVTCA-NH2; thioether N-14): the IC50 was determined as 0.01 µM.

With `CCCC[C@@H]1NC(=O)[C@H](Cc2ccc(-c3ccccc3)cc2)NC(=O)[C@H](C(C)C)NC(=O)[C@H](Cc2c[nH]c3ccccc23)NC(=O)[C@H](CC(=O)O)NC(=O)[C@H](Cc2ccc(C(=O)O)cc2)NC(=O)[C@H](Cc2ccncc2)NC(=O)CSC[C@@H](C(=O)N[C@@H](CC(N)=O)C(N)=O)NC(=O)[C@H](CO)NC(=O)[C@H](C(C)C)NC(=O)[C@H](CC2CCCCC2)NC(=O)[C@H](CCN)NC(=O)[C@@H](C)NC(=O)[C@H](CCCC)N(C)C1=O` [Compound 2089] ({CH2CO}-[4Pal][Phe(4-COOH)]DWV[Bip][Nle][NMeNle][dA][Dab][Cha]VSCN-NH2; thioether N-14), the IC50 was determined as 0.05 µM. As for `CC[C@@H](C)[C@@H]1NC(=O)[C@H](Cc2ccc(-c3ccccc3)cc2)NC(=O)[C@H](CC(C)C)NC(=O)[C@H](Cc2c[nH]c3ccccc23)NC(=O)[C@H](CC(=O)O)NC(=O)[C@H](Cc2ccc(C(=O)O)cc2)NC(=O)[C@H](Cc2ccc(OCC(=O)O)cc2)NC(=O)CSC[C@@H](C(=O)N[C@@H](CCCCN)C(N)=O)NC(=O)[C@H](CC#N)NC(=O)C(C(C)C)NC(=O)[C@H](CC(C)C)NC(=O)[C@H](CC(N)=O)NC(=O)[C@@H](CC(C)C)NC(=O)[C@H](C)N(C)C1=O` (stereo partly drawn) [Compound 2106] ({CH2CO}-Y(Carboxymethyl)[Phe(4-COOH)]DWL[Bip][aIle][NMeA][dL]NL[ξV][Ala(CN)]CK-NH2; thioether N-14), the IC50 was 0.06 µM. Regarding `CC(C)C[C@@H]1NC(=O)[C@H](CCN)NC(=O)[C@@H](CC(C)C)NC(=O)[C@H](C)N(C)C(=O)[C@H](CCCNC(=N)N)NC(=O)[C@H](Cc2ccc(-c3ccccc3)cc2)NC(=O)[C@H](C(C)C)NC(=O)[C@H](Cc2c[nH]c3ccccc23)NC(=O)[C@H](CC(=O)O)NC(=O)[C@H](Cc2cccc(Cl)c2)NC(=O)[C@H](CN)NC(=O)CSC[C@@H](C(=O)N[C@@H](C)C(N)=O)NC(=O)[C@H]([C@@H](C)O)NC(=O)[C@H](C(C)C)NC1=O` [Compound 1445] ({CH2CO}-[Dap][Phe(3-Cl)]DWV[Bip]R[NMeA][dL][Dab]LVTCA-NH2; thioether N-14), the IC50 amounted to 0.11 µM. On to `CC(C)C[C@@H]1NC(=O)[C@H](Cc2c[nH]c3ccccc23)NC(=O)[C@H](CC(=O)O)NC(=O)[C@H](Cc2ccc(C(=O)O)cc2)NC(=O)[C@H](Cc2ccc(OCC(=O)O)cc2)NC(=O)CSC[C@@H](C(=O)N[C@@H](CCN)C(N)=O)NC(=O)[C@H](CO)NC(=O)[C@H](C(C)C)NC(=O)[C@H](CC2CCCCC2)NC(=O)[C@H](CCN)NC(=O)[C@@H](CC(C)C)NC(=O)[C@H](C)N(C)C(=O)[C@H](C(C)C)NC(=O)[C@H](Cc2ccc(-c3ccccc3)cc2)NC1=O` [Compound 1909] ({CH2CO}-Y(Carboxymethyl)[Phe(4-COOH)]DWL[Bip]V[NMeA][dL][Dab][Cha]VSC[Dab]-NH2; thioether N-14), for which the half-maximal inhibitory concentration (IC50) was 0.01 µM. For `CC(C)C[C@@H]1NC(=O)[C@H](CCCNC(=N)N)NC(=O)[C@@H](C(C)C)NC(=O)[C@H](C)N(C)C(=O)[C@H](CCCNC(=N)N)NC(=O)[C@H](Cc2ccc(-c3ccccc3)cc2)NC(=O)[C@H](C(C)C)NC(=O)[C@H](Cc2c[nH]c3ccccc23)NC(=O)[C@H](CC(=O)O)NC(=O)[C@H](Cc2ccc(O)cc2)NC(=O)[C@H](Cc2ccccc2)NC(=O)CSC[C@@H](C(=O)N[C@@H](C)C(N)=O)NC(=O)[C@H]([C@@H](C)O)NC(=O)[C@H](C(C)C)NC1=O` [Compound 1060] ({CH2CO}-FYDWV[Bip]R[NMeA][dV]RLVTCA-NH2; thioether N-14) the value was 0.11 µM; for `CC(C)C[C@@H]1NC(=O)[C@H](Cc2c[nH]c3ccccc23)NC(=O)[C@H](CC(=O)O)NC(=O)[C@H](Cc2ccc(O)cc2)NC(=O)[C@H](Cc2ccccc2)NC(=O)CSC[C@@H](C(=O)N[C@@H](C)C(N)=O)NC(=O)[C@H]([C@@H](C)O)NC(=O)[C@H](CCCN)NC(=O)[C@H](CC(C)C)NC(=O)[C@H](CC(N)=O)NC(=O)[C@@H](C)NC(=O)[C@H](C)N(C)C(=O)[C@H](C(C)C)NC(=O)[C@H](Cc2ccc(-c3ccccc3)cc2)NC1=O` [Compound 1533] ({CH2CO}-FYDWL[Bip]V[NMeA][dA]NL[Orn]TCA-NH2; thioether N-14), 0.15 µM; for `CCCC[C@H]1C(=O)N[C@H](CC(C)C)C(=O)N[C@@H](CCN)C(=O)N[C@@H](CC(C)C)C(=O)N[C@@H](C(C)C)C(=O)N[C@@H](CO)C(=O)N[C@H](C(=O)N[C@@H](CC(N)=O)C(=O)O)CSCC(=O)N[C@@H](C(C)O)C(=O)N[C@@H](Cc2ccc(OCC(=O)O)cc2)C(=O)N[C@@H](CC(=O)O)C(=O)N[C@@H](Cc2c[nH]c3ccccc23)C(=O)N[C@@H](CC(C)C)C(=O)N[C@@H](Cc2ccc(-c3ccccc3)cc2)C(=O)N[C@@H](C(C)CC)C(=O)N1C` (stereo partly drawn) [Compound 2229] ({CH2CO}-[Thr(3ξ)]Y(Carboxymethyl)DWL[Bip][Ile(3ξ)][NMeNle][dL][Dab]LVSCN-OH; thioether N-14), 0.11 µM.

With `CC(C)C[C@@H]1NC(=O)[C@H](CCN)NC(=O)[C@@H](CC(C)C)NC(=O)[C@H](C)N(C)C(=O)[C@H](C(C)C)NC(=O)[C@H](Cc2ccc(-c3ccccc3)cc2)NC(=O)[C@H](C(C)C)NC(=O)[C@H](Cc2c[nH]c3ccccc23)NC(=O)[C@H](CC(=O)O)NC(=O)[C@H](Cc2ccc(C#N)cc2)NC(=O)[C@H](CN)NC(=O)CSC[C@@H](C(=O)N[C@@H](C)C(N)=O)NC(=O)[C@H]([C@@H](C)O)NC(=O)[C@H](C(C)C)NC1=O` [Compound 1435] ({CH2CO}-[Dap][Phe(4-CN)]DWV[Bip]V[NMeA][dL][Dab]LVTCA-NH2; thioether N-14), the concentration for half-maximal inhibition (IC50) is 0.05 µM.

By IC50 is commonly meant the point on the concentration scale where inhibition reaches its midpoint.

Source of the values: patent US20240409585A1, “MACROCYCLIC IMMUNOMODULATORS” (priority 2021, published 2024).
